According to patent publication EP3807270B1, “NOVEL HETEROARYL HETEROCYCLYL COMPOUNDS FOR THE TREATMENT OF AUTOIMMUNE DISEASE” (F. Hoffmann-La Roche AG, priority 2018, dated 2019):

target: T1, hTLR7 (Homo sapiens, UniProt Q9NYK1); assay: HEK293-Blue-hTLR-7 cells assay (SEAP reporter, R848 stimulation); assay type: cell-based; parameters: host or cells: HEK293 (HEK-Blue); details: HEK293-Blue-hTLR7 cells, R848, 20 hrs; read-out: HEK/hTLR7 IC50
T1 sequence (Q9NYK1 27-1049): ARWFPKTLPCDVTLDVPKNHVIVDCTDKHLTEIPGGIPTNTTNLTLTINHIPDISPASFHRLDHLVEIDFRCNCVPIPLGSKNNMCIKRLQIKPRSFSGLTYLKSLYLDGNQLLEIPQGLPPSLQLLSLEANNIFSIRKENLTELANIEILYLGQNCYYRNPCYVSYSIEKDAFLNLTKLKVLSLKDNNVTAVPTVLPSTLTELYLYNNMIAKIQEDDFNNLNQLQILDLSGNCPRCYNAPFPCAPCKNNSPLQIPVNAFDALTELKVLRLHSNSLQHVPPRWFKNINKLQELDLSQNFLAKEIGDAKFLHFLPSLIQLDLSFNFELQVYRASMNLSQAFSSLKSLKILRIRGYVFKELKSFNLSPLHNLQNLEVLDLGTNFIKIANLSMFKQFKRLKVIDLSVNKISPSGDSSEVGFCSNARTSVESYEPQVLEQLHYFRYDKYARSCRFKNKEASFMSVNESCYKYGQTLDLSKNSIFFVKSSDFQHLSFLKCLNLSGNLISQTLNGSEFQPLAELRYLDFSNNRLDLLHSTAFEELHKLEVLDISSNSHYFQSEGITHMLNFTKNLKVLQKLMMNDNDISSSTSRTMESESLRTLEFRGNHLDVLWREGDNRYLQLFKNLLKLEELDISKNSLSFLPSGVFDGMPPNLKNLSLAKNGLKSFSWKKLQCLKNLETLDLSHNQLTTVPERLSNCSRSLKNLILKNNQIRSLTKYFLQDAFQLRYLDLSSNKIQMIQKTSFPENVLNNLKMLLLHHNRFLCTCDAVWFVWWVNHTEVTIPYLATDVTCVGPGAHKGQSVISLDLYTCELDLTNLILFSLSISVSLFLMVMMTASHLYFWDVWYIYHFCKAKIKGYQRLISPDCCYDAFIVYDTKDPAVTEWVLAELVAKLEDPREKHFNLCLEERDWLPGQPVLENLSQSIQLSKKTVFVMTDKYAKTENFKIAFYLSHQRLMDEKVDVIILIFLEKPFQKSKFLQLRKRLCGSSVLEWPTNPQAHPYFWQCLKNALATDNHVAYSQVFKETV
Summary of the method: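 HEK293-Blue cells stably expressing human TLR7 with an NF-κB/AP-1-driven SEAP reporter were treated with serially diluted compound (1% DMSO final) plus R848 for 20 h at 37 °C. Supernatant SEAP activity was measured with QUANTI-Blue substrate after 2 h at 37 °C, with absorbance read at 620-655 nm.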

SMILES | IC50 [µM]
C[C@@H]1CN(c2ccc(C#N)c3ncccc23)C[C@H](CN2CCN(c3ccc(Cl)cc3)CC2)O1 [Example R2, 5-[(2S,6R)-2-[[4-(4-chlorophenyl)piperazin-1-yl]methyl]-6-methyl-morpholin-4-yl]quinoline-8-carbonitrile, reference compound] | 0.21
C[C@@H]1CN(c2ccc(C#N)c3ncccc23)C[C@H](CN2CCN(c3cc4c(cn3)[C@H](C)NCC4)CC2)O1 (single isomer, unassigned) [Example 72] | 0.013
Cc1nc2c(nc1N1CCN(C[C@H]3CN(c4ccc(C#N)c5ncccc45)C[C@@H](C)O3)CC1)CCNC2 [Example 60, 5-[(2R,6S)-2-methyl-6-[[4-(3-methyl-5,6,7,8-tetrahydropyrido[3,4-b]pyrazin-2-yl)piperazin-1-yl]methyl]morpholin-4-yl]quinoline-8-carbonitrile] | 0.011
C[C@@H]1CN(c2ccc(C#N)c3ncccc23)C[C@H](CN2CCN(c3cc4c(cn3)CN[C@@H](C)C4)CC2)O1 (single isomer, unassigned) [Example 71] | 0.024
C[C@@H]1CN(c2ccc(C#N)c3ncccc23)C[C@H](CN2CCN(c3ccc4c(n3)CCN(C)C4)CC2)O1 [Example 34, 5-[(2R,6S)-2-methyl-6-[[4-(6-methyl-7,8-dihydro-5H-1,6-naphthyridin-2-yl)piperazin-1-yl]methyl]morpholin-4-yl]quinoline-8-carbonitrile] | 0.018
C[C@@H]1CN(c2ccc(C#N)c3ncccc23)C[C@H](CN2CCN(c3cc4c(cn3)[C@@H](C)NCC4)CC2)O1 (single isomer, unassigned) [Example 73] | 0.017
C[C@@H]1Cc2cc(N3CCN(C[C@H]4CN(c5ccc(C#N)c6ncccc56)C[C@@H](C)O4)CC3)ncc2CN1 (single isomer, unassigned) [Example 70] | 0.026

Stronger by IC50, values ahead:

IC50 [µM] | SMILES
0.007 | C[C@@H]1CN(c2ccc(C#N)c3ncccc23)C[C@H](CN2CCN(c3cnc4c(n3)CNCC4)CC2)O1 [Example 40, 5-[(2R,6S)-2-methyl-6-[[4-(5,6,7,8-tetrahydropyrido[3,4-b]pyrazin-3-yl)piperazin-1-yl]methyl]morpholin-4-yl]quinoline-8-carbonitrile]
0.006 | C[C@@H]1Cc2cc(N3CCN(C[C@H]4CN(c5ccc(C#N)c6nccnc56)C[C@@H](C)O4)CC3)ncc2CN1 (single isomer, unassigned) [Example 83]
0.005 | C[C@@H]1CN(c2ccc(C#N)c3nccnc23)C[C@H](CN2CCN(c3cc4c(cn3)C[C@H](C)NC4)CC2)O1 (single isomer, unassigned) [Example 81]
0.005 | C[C@@H]1CN(c2ccc(C#N)c3ncccc23)C[C@H](CN2CC3(C2)CN(c2ccc4c(n2)CCNC4)CCO3)O1 [Example 49, 5-[(2R,6S)-2-methyl-6-[[8-(5,6,7,8-tetrahydro-1,6-naphthyridin-2-yl)-5-oxa-2,8-diazaspiro[3.5]nonan-2-yl]methyl]morpholin-4-yl]quinoline-8-carbonitrile]
